Data on 22 compounds can be found in patent publication US10723711B2, “1,1,1-trifluoro-3-hydroxypropan-2-yl carbamate derivatives and 1,1,1-trifluoro-4-hydroxybutan-2-yl carbamate derivatives as MAGL inhibitors” (PFIZER INC., priority 2015, dated 2020).

Like-named read-outs stand apart in the source and are kept apart here.

For experiment [1], the target named is T1, human recombinant Monoacylglycerol Lipase (Homo sapiens, UniProt Q99685).
T1 sequence (Q99685 1-303): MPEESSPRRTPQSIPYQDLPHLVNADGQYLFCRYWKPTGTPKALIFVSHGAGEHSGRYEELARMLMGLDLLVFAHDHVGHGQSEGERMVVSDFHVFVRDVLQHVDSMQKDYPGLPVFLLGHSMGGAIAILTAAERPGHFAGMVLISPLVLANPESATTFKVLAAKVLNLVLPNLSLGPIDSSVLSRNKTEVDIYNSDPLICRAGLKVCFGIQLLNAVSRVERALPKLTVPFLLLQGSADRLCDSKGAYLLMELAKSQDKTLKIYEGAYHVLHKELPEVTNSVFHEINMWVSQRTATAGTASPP
Put plainly: MAGL inhibition enzymatic assay, fluorogenic substrate 7-HCA, IC50 at T=0 min or after 30 minute incubation (T=30 min). It counts as biochemical. To be noted: geometric mean of 2-4 determinations unless otherwise indicated. As to the method:
An equal volume of 7-HCA in assay buffer with 10% DMSO was added either immediately (T=0 min) or after a 30 minute incubation (T=30 min) to initiate the reaction. […] After these dilutions, the final concentration of the test compound ranged from 3 μM to 0.03 nM. […] IC50 values were generated based on a four parameter fit model using ABASE software from IDBS.

Experiment [2] has as its target T1, human recombinant Monoacylglycerol Lipase. The experiment can be described thus: MAGL inactivation, enzyme progress curves, kinact/KI. It counts as biochemical. To be noted: from enzyme progress curves, T = 0 min protocol; geometric mean of 2-4 determinations unless otherwise indicated. As to the method:
Assessment of MAGL inhibition utilizes human recombinant Monoacylglycerol Lipase and the fluorogenic substrate 7-hydroxycoumarinyl arachidonate (7-HCA, Biomol ST-502). 400 nL of a test compound at decreasing concentration (ranging from 150 μM down to 1.5 nM) was spotted into a 384-well back plate (PerkinElmer, 6007279) using a Labcyte Echo, followed by addition of 10 μL of MAGL enzyme in assay buffer (50 mM HEPES, pH 7.4, 100 mM NaCl, 5 mM MgCl2, 0.1% Triton X-100 and 25% glycerin). An equal volume of 7-HCA in assay buffer with 10% DMSO was added either immediately (T=0 min) or after a 30 minute incubation (T=30 min) to initiate the reaction. The final concentration of MAGL enzyme was […] and 7-HCA substrate was 5 μM. After these dilutions, the final concentration of the test compound ranged from 3 μM to 0.03 nM. The reaction was allowed to progress for 60 minutes, after which the plate was read at an Ex/Em of 340/465. Percent inhibitions were calculated based on control wells containing no compound (0% inhibition) and a control compound (e.g., a MAGL inhibitor whose activity is known or was previously reported in the literature, such as one with about 100% inhibition). IC50 values were generated based on a four parameter fit model using ABASE software from IDBS. See e.g., Wang, Y. et al., “A Fluorescence-Based Assay for Monoacylglycerol Lipase Compatible with Inhibitor Screening,” Assay and Drug Development Technologies, 2008, Vol. 6 (3) pp 387-393 (reporting an assay for measuring MAGL activity).
To measure MAGL inactivation, the same protocol for the (T=0 min) MAGL inhibition IC50 assay was performed with data collected every minute to acquire enzyme progress curves at decreasing concentrations of compound.

Where [3] appears, read: T = 0 min (substrate added immediately), read-out: MAGL (T = 0 min) IC50.
Setting [4] is: T = 30 min (30 minute incubation), read-out: MAGL (T = 30 min) IC50.

As to `Cc1cnc(OC2CCN(C(=O)O[C@H](CO)C(F)(F)F)CC2)c(C)c1` [Example 61], the IC50 (usually the concentration at which inhibition is half-maximal) in experiment [1] (setting [3]) is 53 nM; in experiment [1] (setting [4]) it was 5 nM. In addition, the “MAGL kinact/KI” value in experiment [2] is 7304 1/s per M.

For `Cc1ccc(S(=O)(=O)N2CCOC3(CCN(C(=O)O[C@H](CO)C(F)(F)F)CC3)C2)cc1Cl` [Example 59], the half-maximal inhibitory concentration (IC50) in experiment [1] (setting [3]) came to 15 nM; in experiment [1] (setting [4]), 1 nM. The “MAGL kinact/KI” value in experiment [2] is given as 59048 1/s per M.

As for `O=C(O[C@H](CO)C(F)(F)F)N1CCC2(CC1)CN(CC1CCCOC1)CCO2` (single isomer, unassigned) [Example 4], the half-maximal inhibitory concentration (IC50) amounted to 166 nM in experiment [1] (setting [3]) and 19 nM in experiment [1] (setting [4]). In experiment [2], the “MAGL kinact/KI” value is recorded as 5489 1/s per M.

For `O=C(O[C@H](CO)C(F)(F)F)N1CCC2(CC1)CN(S(=O)(=O)c1ccc(F)cc1)C(O)CO2` (mixture of isomers) [Example 29, (2R)-1,1,1-Trifluoro-3-hydroxypropan-2-yl 4-[(4-fluorophenyl)sulfonyl]-3-hydroxy-1-oxa-4,9-diazaspiro[5.5]undecane-9-carboxylate], the IC50 stood at 109 nM in experiment [1] (setting [3]) and 24 nM in experiment [1] (setting [4]). For the same compound, the “MAGL kinact/KI” value in experiment [2] was 85270 1/s per M.

Regarding `O=C(O[C@H](CO)C(F)(F)F)N1CCC2(CC1)CN(S(=O)(=O)c1ccc(F)c(Cl)c1)CCO2` [Example 60], the IC50 in experiment [1] (setting [3]) worked out at 37 nM; in experiment [1] (setting [4]) it was 2 nM. Besides, the “MAGL kinact/KI” value in experiment [2] is reported as 19870 1/s per M.

`O=C(O[C@H](CO)C(F)(F)F)N1CCC2(CC1)CN(Cc1ccc(F)cc1)CCO2` [Example 42]: the IC50 was determined as 304 nM in experiment [1] (setting [3]) and 32 nM in experiment [1] (setting [4]). Further, the “MAGL kinact/KI” value in experiment [2] was 2591 1/s per M.

With `CN([C@H]1COC2(CCN(C(=O)O[C@H](CO)C(F)(F)F)CC2)C1)S(=O)(=O)c1ccccc1` [Example 15, (2R)-1,1,1-trifluoro-3-hydroxypropan-2-yl (3R)-3-[methyl(phenylsulfonyl)amino]-1-oxa-8-azaspiro[4.5]decane-8-carboxylate], the half-inhibitory concentration (IC50) came out at 17 nM in experiment [1] (setting [3]) and 2 nM in experiment [1] (setting [4]). The “MAGL kinact/KI” value in experiment [2] is on record as 44421 1/s per M.

As for `Cc1ccc(OC2CCN(C(=O)O[C@H](CO)C(F)(F)F)CC2)nc1` [Example 57], the IC50 in experiment [1] (setting [3]) was determined as 126 nM; in experiment [1] (setting [4]), 10 nM. In experiment [2], the “MAGL kinact/KI” value is given as 5998 1/s per M.

Regarding `O=C(O[C@H](CO)C(F)(F)F)N1CCC2(CC1)CC(OCc1ccccc1)CO2` (mixture of isomers) [Example 132], the IC50 in experiment [1] (setting [3]) stood at 130 nM; in experiment [1] (setting [4]) it was 12 nM. Moreover, the “MAGL kinact/KI” value in experiment [2] was 8426 1/s per M.

Take `COc1ccc(-n2ccc([C@H]3[C@@H]4CN(C(=O)O[C@H](CO)C(F)(F)F)C[C@@H]43)n2)cn1` [Example 69]: the IC50 in experiment [1] (setting [3]) came to 104 nM; in experiment [1] (setting [4]), 11 nM. Also, in experiment [2], the “MAGL kinact/KI” value was 4621 1/s per M.

Regarding `O=C(O[C@H](CO)C(F)(F)F)N1C[C@@H]2CN(S(=O)(=O)c3ccc(F)cc3)C[C@@H]2C1` [Example 40], the results for the concentration for half-maximal inhibition (IC50) in experiment [1] (setting [3]) and in experiment [1] (setting [4]) were 494 nM and 50 nM, respectively.

As for `COc1ccc(-n2ccc([C@H]3[C@@H]4CN(C(=O)O[C@H](CO)C(F)(F)F)C[C@@H]43)n2)nc1` [Example 1, (2R)-1,1,1-trifluoro-3-hydroxypropan-2-yl (1α,5α,6α)-6-[1-(5-methoxypyridin-2-yl)-1H-pyrazol-3-yl]-3-azabicyclo[3.1.0]hexane-3-carboxylate], the IC50 is 85 nM in experiment [1] (setting [3]) and 14 nM in experiment [1] (setting [4]). Moreover, the “MAGL kinact/KI” value in experiment [2] is recorded as 7806 1/s per M.

For the compound `O=C(O[C@H](CO)C(F)(F)F)N1CCN(Cc2ccc(F)cc2)CC1` [Example 25, (2R)-1,1,1-trifluoro-3-hydroxypropan-2-yl 4-(4-fluorobenzyl)piperazine-1-carboxylate], the IC50 in experiment [1] (setting [3]) turned out to be 794 nM; in experiment [1] (setting [4]), 71 nM.

Consider `O=C(O[C@H](CO)C(F)(F)F)N1CCC2(CC1)CN(S(=O)(=O)CCCN1CCCC1)CCO2` [Example 54], for which the IC50 is more than 3000 nM in experiment [1] (setting [3]) and more than 1680 nM in experiment [1] (setting [4]).

For the compound `O=C(O[C@H](CO)C(F)(F)F)N1CCC2(CC1)CN(Cc1ccc(F)cc1)S(=O)(=O)CO2` [Example 28, (2R)-1,1,1-Trifluoro-3-hydroxypropan-2-yl 4-(4-fluorobenzyl)-1-oxa-3-thia-4,9-diazaspiro[5.5]undecane-9-carboxylate 3,3-dioxide], the values for the IC50 in experiment [1] (setting [3]) and in experiment [1] (setting [4]) were 696 nM and 85 nM, respectively.

Turning to `O=C(O[C@H](CO)C(F)(F)F)N1CCC2(CC1)CN(S(=O)(=O)NCc1ccccc1)CCO2` [Example 67], the IC50 in experiment [1] (setting [3]) was determined as 29 nM; in experiment [1] (setting [4]), 4 nM. Moreover, in experiment [2], the “MAGL kinact/KI” value is given as 30591 1/s per M.

Consider `O=C(O[C@H](CO)C(F)(F)F)N1C[C@@H]2[C@H](C1)[C@H]2c1ccn(Cc2ccccn2)n1` [Example 37], for which the half-inhibitory concentration (IC50) in experiment [1] (setting [3]) stood at 357 nM; in experiment [1] (setting [4]) it was 27 nM. The “MAGL kinact/KI” value in experiment [2] was 1616 1/s per M.

For the compound `COP(=O)(OC)OC[C@@H](OC(=O)N1CCC2(CC1)CN(S(=O)(=O)c1ccc(F)cc1)CCO2)C(F)(F)F` [Example 86], the results for the IC50 in experiment [1] (setting [3]) and in experiment [1] (setting [4]) were 97 nM and 8 nM, respectively. Also, in experiment [2], the “MAGL kinact/KI” value is listed as 132 1/s per M.

As for `CN(CC1(O)CCN(C(=O)O[C@H](CO)C(F)(F)F)CC1)S(=O)(=O)c1ccccc1` [Example 24, (2R)-1,1,1-Trifluoro-3-hydroxypropan-2-yl 4-hydroxy-4-{[methyl(phenylsulfonyl)amino]methyl}piperidine-1-carboxylate], the IC50 in experiment [1] (setting [3]) came to 1900 nM; in experiment [1] (setting [4]) it was 195 nM.

For `O=C1COC2(CCN(C(=O)O[C@H](CO)C(F)(F)F)CC2)CN1Cc1ccc(F)cc1` [Example 17, (2R)-1,1,1-Trifluoro-3-hydroxypropan-2-yl 4-(4-fluorobenzyl)-3-oxo-1-oxa-4,9-diazaspiro[5.5]undecane-9-carboxylate], the IC50 in experiment [1] (setting [3]) worked out at 951 nM; in experiment [1] (setting [4]) it was 110 nM.

On to `O=C(O[C@H](CO)C(F)(F)F)N1C[C@@H]2CN(S(=O)(=O)c3ccc(F)c(F)c3)C[C@@H]2C1` [Example 13, (2R)-1,1,1-Trifluoro-3-hydroxypropan-2-yl (3aR,6aS)-5-[(3,4-difluorophenyl)sulfonyl]hexahydropyrrolo[3,4-c]pyrrole-2(1H)-carboxylate], for which the IC50 in experiment [1] (setting [3]) is 368 nM; in experiment [1] (setting [4]), 35 nM.

Regarding `CC1N(S(=O)(=O)c2ccc(F)cc2)CCOC12CCN(C(=O)O[C@H](CO)C(F)(F)F)CC2` (single isomer, unassigned) [Example 71], the IC50 stood at 99 nM in experiment [1] (setting [3]) and 17 nM in experiment [1] (setting [4]). Further, in experiment [2], the “MAGL kinact/KI” value is 9358 1/s per M.
